Substitutions are numbered along the chain they refer to.

Our source for the % of inhibition, % of control and % binding values is ChEMBL document CHEMBL5465560, “Selectivity Literature for EUbOPEN Chemogenomic Library” (2024).

Experiment [1] relates to T1, Discoidin domain-containing receptor 2 (Homo sapiens), Q16832 [T654M].
T1 sequence (whole entry): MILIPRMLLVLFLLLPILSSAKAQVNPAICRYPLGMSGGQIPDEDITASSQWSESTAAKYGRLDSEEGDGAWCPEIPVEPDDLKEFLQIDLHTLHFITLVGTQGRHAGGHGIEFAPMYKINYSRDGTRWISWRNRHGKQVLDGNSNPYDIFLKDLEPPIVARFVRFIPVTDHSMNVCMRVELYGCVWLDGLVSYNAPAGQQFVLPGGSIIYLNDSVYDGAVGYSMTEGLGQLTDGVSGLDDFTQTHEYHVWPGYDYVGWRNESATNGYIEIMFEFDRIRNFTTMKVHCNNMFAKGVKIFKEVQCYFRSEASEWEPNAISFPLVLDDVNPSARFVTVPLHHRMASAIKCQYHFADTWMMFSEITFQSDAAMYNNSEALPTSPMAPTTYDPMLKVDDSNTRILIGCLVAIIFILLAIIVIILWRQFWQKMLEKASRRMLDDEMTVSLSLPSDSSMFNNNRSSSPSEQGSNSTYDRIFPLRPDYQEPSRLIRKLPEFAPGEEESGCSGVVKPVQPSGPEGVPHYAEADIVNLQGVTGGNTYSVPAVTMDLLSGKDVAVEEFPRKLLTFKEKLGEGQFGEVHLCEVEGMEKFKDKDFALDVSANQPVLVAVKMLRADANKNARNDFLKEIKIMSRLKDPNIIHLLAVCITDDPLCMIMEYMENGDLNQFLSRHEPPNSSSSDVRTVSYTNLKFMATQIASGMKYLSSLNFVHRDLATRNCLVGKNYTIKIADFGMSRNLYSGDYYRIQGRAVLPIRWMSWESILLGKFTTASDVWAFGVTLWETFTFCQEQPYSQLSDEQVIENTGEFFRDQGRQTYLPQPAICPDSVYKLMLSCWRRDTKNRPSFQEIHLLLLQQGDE
In words: (§1) Selectivity interaction (LanthaScreen Eu Kinase Binding Assay) EUB0001632a DDR2. To be noted: at 10 µM.

Experiment [2] has as its system T2, Discoidin domain-containing receptor 2 (Homo sapiens), Q16832 [N456S].
T2 sequence (whole entry): T1 sequence (whole entry) with N456S, M654T
The experiment is described as §1. To be noted: at 10 µM.

In experiment [3] the target is Epithelial discoidin domain-containing receptor 1 (Homo sapiens) (UniProt Q08345). In words: Selectivity interaction (KinomeScan (DiscoverX)) EUB0001079a DDR1. Conditions: at 1 µM.
Sequence of Epithelial discoidin domain-containing receptor 1 (Homo sapiens) (Q08345 whole entry, the tested form may be a part): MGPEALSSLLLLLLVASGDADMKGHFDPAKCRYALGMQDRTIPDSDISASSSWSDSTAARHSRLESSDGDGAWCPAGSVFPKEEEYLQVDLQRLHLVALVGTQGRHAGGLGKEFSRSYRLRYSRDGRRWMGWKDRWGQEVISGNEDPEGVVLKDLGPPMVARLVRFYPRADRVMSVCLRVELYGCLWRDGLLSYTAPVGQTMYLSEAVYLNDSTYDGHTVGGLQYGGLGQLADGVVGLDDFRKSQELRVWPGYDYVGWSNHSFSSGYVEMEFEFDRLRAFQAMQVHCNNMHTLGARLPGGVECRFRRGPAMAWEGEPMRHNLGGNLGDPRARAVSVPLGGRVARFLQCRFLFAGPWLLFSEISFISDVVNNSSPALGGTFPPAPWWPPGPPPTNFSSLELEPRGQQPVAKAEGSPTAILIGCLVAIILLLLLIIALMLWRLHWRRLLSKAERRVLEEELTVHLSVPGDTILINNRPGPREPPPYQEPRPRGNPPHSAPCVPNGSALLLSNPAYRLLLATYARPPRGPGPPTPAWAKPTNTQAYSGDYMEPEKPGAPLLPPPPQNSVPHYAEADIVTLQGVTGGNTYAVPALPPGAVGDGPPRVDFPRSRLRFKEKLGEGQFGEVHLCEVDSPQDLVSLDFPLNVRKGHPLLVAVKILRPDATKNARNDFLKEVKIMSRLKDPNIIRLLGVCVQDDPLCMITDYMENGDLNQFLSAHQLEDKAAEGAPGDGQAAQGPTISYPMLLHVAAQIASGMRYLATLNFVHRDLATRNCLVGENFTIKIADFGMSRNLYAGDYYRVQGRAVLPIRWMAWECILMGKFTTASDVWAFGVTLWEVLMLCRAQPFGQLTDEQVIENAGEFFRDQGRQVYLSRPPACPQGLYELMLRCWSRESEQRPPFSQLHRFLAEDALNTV
For experiment [4], the target named is T3, Serine/threonine-protein kinase TAO2 (Homo sapiens) (UniProt Q9UL54).
T3 sequence (whole entry): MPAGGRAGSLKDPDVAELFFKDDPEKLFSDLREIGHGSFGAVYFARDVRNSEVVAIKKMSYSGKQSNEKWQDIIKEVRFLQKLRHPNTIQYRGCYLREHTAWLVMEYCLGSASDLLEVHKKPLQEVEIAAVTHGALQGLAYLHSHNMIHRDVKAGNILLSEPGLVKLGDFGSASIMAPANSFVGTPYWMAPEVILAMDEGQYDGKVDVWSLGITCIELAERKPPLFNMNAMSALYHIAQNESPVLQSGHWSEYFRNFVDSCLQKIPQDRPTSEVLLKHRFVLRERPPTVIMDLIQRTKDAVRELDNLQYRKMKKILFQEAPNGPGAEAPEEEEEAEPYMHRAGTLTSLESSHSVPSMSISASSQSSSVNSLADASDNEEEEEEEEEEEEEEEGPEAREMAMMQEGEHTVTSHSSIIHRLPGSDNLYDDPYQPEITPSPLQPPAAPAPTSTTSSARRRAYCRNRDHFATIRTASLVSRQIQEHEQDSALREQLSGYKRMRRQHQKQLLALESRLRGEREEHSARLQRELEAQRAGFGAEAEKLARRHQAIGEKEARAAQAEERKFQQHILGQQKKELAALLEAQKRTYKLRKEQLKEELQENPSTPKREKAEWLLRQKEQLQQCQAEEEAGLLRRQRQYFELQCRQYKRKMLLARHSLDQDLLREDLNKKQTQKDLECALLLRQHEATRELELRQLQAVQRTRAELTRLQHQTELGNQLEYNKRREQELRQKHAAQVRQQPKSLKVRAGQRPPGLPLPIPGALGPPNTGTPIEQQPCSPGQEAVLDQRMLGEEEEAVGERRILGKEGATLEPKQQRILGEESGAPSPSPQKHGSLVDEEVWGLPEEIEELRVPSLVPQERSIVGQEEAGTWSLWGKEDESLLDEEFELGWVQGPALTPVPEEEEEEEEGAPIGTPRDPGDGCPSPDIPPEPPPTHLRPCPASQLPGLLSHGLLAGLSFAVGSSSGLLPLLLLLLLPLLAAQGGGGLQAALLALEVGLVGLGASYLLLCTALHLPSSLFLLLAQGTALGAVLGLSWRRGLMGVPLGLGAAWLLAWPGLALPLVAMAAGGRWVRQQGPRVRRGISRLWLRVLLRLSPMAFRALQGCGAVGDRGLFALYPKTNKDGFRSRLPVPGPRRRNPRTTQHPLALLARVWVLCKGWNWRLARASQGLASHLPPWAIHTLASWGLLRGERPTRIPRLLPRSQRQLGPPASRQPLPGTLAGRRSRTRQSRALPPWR
As to the kind of experiment: Selectivity interaction (KinomeScan (DiscoverX)) EUB0000229b TAOK2. Conditions: at 10 µM.

For `Cn1cc(-n2cnc3c(NCc4nc5cc(Cl)c(Cl)cc5[nH]4)nc(N4CCOCC4)nc32)cn1`, the % of inhibition was -29.9% in experiment [1] and -20.1% in experiment [2]. In experiment [3], `Nc1cnc(N2CCc3cc(S(=O)(=O)Nc4c(F)cc(Cl)cc4F)cc(N4CCCC4=O)c32)nc1` [TP-020n] returned a % of control of 100%. `COc1cc(N(C)c2ccnc3ccc(C(F)(F)F)cc23)cc(OC)c1OC`: the % binding in experiment [4] is 80%.
